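Exposure lasted 48 hours, with cells grown in 96-well plates and compounds tested at five concentrations. GI50: concentration for 50% inhibition of growth.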 The source made the active and inactive calls. No stated cut-off is given here; in the data, active = GI50 up to about 1.1 µM and inactive = higher.
Key:
Assay in all cases: growth of human tumour cells (NCI), 48 h
RPMI-8226 = tested on: RPMI-8226
NCI-H460 = tested on: NCI-H460
OVCAR-3 = tested on: OVCAR-3
IGROV-1 = tested on: IGROV-1
SK-MEL-28 = tested on: SK-MEL-28
TK-10 = tested on: TK-10
COLO 205 = tested on: COLO 205
OVCAR-8 = tested on: OVCAR-8
EKVX = tested on: EKVX
LOX IMVI = tested on: LOX IMVI
NCI-H226 = tested on: NCI-H226
HOP-62 = tested on: HOP-62
UACC-257 = tested on: UACC-257
SR = tested on: SR
786-0 = tested on: 786-0
OVCAR-5 = tested on: OVCAR-5
HCT-15 = tested on: HCT-15
DU-145 = tested on: DU-145
MDA-MB-231 = tested on: MDA-MB-231
RXF 393 = tested on: RXF 393

Structure (SMILES)	GI50 (RPMI-8226)	GI50 (NCI-H460)	GI50 (OVCAR-3)	GI50 (IGROV-1)	GI50 (SK-MEL-28)	GI50 (TK-10)	GI50 (COLO 205)	GI50 (OVCAR-8)	GI50 (EKVX)	GI50 (LOX IMVI)	GI50 (NCI-H226)	GI50 (HOP-62)	GI50 (UACC-257)	GI50 (SR)	GI50 (786-0)	GI50 (OVCAR-5)	GI50 (HCT-15) [µM]	GI50 (DU-145)	GI50 (MDA-MB-231)	GI50 (RXF 393)
C=C(C)C1(Sc2ccc(OC)cc2)CC1	9.29 µM (inactive)	31 µM (inactive)	14.5 µM (inactive)	30.5 µM (inactive)	79.1 µM (inactive)	48.1 µM (inactive)	17.1 µM (inactive)	33 µM (inactive)	27.6 µM (inactive)	17.3 µM (inactive)	4.81 µM (inactive)	34.1 µM (inactive)	21.2 µM (inactive)	14.6 µM (inactive)	29.6 µM (inactive)	34.2 µM (inactive)	24.4	57.9 µM (inactive)	43.4 µM (inactive)	17.6 µM (inactive)
CC1(C)OCC(C2OC(=O)C(OCc3ccccc3)=C2OCc2ccccc2)O1 (stereo not given)	24 µM (inactive)	41 µM (inactive)	49.2 µM (inactive)	64.3 µM (inactive)	65.6 µM (inactive)	44.3 µM (inactive)	22.2 µM (inactive)	50.4 µM (inactive)	37.6 µM (inactive)	31.2 µM (inactive)	32.7 µM (inactive)	81.8 µM (inactive)	29.9 µM (inactive)	28.4 µM (inactive)	45 µM (inactive)	60.1 µM (inactive)	30.9	81.1 µM (inactive)	24.6 µM (inactive)	49.1 µM (inactive)
O=C(CSc1nnc(SCC(=O)NN=C2CCCCC2)s1)NN=C1CCCCC1	> 100 µM (inactive)	> 100 µM (inactive)	> 100 µM (inactive)	> 100 µM (inactive)	> 100 µM (inactive)	> 100 µM (inactive)	> 100 µM (inactive)	> 100 µM (inactive)	> 100 µM (inactive)	> 100 µM (inactive)	> 100 µM (inactive)	> 100 µM (inactive)	> 100 µM (inactive)	> 100 µM (inactive)	> 100 µM (inactive)	> 100 µM (inactive)	> 100	> 100 µM (inactive)	> 100 µM (inactive)	> 100 µM (inactive)
Nc1ccccc1OCCCOc1ccccc1N	> 100 µM (inactive)	> 100 µM (inactive)	> 100 µM (inactive)	> 100 µM (inactive)	> 100 µM (inactive)	> 100 µM (inactive)	> 100 µM (inactive)	> 100 µM (inactive)	> 100 µM (inactive)	> 100 µM (inactive)	> 100 µM (inactive)	> 100 µM (inactive)	> 100 µM (inactive)	88.5 µM (inactive)	> 100 µM (inactive)	> 100 µM (inactive)	> 100	> 100 µM (inactive)	> 100 µM (inactive)	> 100 µM (inactive)
CC(=O)O[C@H]1C(=O)[C@@]2(C)[C@H]([C@H](OC(=O)c3ccccc3)[C@]3(O)C[C@H](OC(=O)[C@H](O)[C@@H](NC(=O)c4ccccc4)c4cccc(N(C)C)c4)C(C)=C1C3(C)C)[C@]1(OC(C)=O)CO[C@@H]1C[C@@H]2O	0.00968 µM (active)	0.0419 µM (active)	0.0308 µM (active)	0.0537 µM (active)	0.575 µM (active)	1.41 µM (inactive)	0.0432 µM (active)	0.155 µM (active)	> 32.1 µM (inactive)	0.036 µM (active)	0.665 µM (active)	0.256 µM (active)	0.714 µM (active)	0.0322 µM (active)	0.389 µM (active)	0.157 µM (active)	1.79	0.302 µM (active)	0.542 µM (active)	0.221 µM (active)
